Legend:
Test in all cases: Eurofins enzymatic radiometric kinase assay
Assay type in all cases: biochemical
Conditions in all cases: ATP at Km, duplicate
MARK4 = biological target: T1, MARK4 (Homo sapiens, UniProt Q96L34)
T1 construct: purchased Eurofins (radiometric) / Eurofins DiscoverX scanMAX / Reaction Biology / SignalChem
T1 sequence (Q96L34 1-752): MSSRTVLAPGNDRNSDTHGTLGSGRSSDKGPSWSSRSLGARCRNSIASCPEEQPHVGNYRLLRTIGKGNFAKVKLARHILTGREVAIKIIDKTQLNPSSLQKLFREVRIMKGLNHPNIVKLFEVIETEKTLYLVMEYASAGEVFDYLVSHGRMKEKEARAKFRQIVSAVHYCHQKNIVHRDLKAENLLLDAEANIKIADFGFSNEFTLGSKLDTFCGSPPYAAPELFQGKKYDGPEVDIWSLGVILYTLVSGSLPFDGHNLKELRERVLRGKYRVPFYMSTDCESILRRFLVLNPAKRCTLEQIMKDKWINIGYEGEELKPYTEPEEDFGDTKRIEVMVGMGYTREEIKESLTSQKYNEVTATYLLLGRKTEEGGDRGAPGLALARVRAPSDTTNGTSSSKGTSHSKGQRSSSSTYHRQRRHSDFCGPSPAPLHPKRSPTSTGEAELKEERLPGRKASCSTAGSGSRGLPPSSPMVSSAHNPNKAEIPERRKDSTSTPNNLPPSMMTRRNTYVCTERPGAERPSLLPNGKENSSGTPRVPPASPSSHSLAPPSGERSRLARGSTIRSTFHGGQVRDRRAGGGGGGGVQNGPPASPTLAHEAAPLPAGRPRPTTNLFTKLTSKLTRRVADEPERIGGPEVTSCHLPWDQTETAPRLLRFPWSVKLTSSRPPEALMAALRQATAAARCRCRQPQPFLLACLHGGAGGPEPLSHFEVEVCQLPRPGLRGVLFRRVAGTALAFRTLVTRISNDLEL
Protocol: (§1) The column labeled “# < 10 PoC in enzyme panel” in Table 1 reports the number of kinases in this 17-member panel inhibited > 90% by each analog.
(§2) Details about the substrate used, protein constructs, controls, and assay protocol for these kinase assays are available at the Eurofins website: https://www.eurofinsdiscoveryservices.com. Reaction Biology Corp. (RBC) radiometric HotSpot kinase assays were carried out at the Km value for ATP in dose–response (10-pt curve) format for MYLK4, RIPK5, and YSK4 in Table S2. Details about the substrate used, protein constructs, controls, and assay protocol for these kinase assays are available at the RBC website: https://www.reactionbiology.com/list-kinase-targets-us-facility. SignalChem developed an ADP-Glo assay to test for enzymatic inhibition of PIKfyve in dose–response (10-pt curve) format in duplicate.

MARK3 = biological target: T2, MARK3 (Homo sapiens, UniProt P27448)
T2 construct: purchased Eurofins (radiometric) / Eurofins DiscoverX scanMAX / Reaction Biology / SignalChem
T2 sequence (P27448 whole entry): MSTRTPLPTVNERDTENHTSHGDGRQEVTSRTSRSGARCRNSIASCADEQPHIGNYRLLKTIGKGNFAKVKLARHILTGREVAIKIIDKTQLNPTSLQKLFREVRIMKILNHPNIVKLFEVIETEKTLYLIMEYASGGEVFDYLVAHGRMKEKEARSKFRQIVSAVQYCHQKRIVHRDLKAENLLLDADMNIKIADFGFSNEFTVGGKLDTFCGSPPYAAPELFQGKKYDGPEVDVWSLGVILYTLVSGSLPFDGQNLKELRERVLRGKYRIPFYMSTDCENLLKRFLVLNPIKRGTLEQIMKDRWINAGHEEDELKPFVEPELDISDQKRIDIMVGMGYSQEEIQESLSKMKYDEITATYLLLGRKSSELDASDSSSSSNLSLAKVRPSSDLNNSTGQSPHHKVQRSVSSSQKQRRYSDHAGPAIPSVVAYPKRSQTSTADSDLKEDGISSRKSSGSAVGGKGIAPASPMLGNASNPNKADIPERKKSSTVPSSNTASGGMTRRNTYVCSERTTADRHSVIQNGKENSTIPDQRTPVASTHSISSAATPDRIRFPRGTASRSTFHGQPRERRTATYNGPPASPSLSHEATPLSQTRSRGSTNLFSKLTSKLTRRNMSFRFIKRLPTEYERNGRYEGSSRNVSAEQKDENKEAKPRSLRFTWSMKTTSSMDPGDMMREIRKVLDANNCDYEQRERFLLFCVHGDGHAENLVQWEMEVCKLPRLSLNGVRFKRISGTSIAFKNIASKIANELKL
Protocol: as §1, §2

TSSK2 = biological target: T3, TSSK2 (Homo sapiens, UniProt Q96PF2)
T3 construct: purchased Eurofins (radiometric) / Eurofins DiscoverX scanMAX / Reaction Biology / SignalChem
T3 sequence (Q96PF2 1-358): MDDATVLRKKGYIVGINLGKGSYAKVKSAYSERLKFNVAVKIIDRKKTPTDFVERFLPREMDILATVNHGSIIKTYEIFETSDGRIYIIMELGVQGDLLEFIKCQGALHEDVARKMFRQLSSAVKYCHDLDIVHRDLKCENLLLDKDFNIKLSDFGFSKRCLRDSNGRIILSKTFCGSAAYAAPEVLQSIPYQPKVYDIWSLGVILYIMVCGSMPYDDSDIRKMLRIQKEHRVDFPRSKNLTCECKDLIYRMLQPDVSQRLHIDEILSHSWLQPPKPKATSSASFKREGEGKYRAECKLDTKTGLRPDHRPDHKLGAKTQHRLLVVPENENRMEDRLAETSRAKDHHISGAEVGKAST
Protocol: as §1, §2

PAK3 = biological target: T4, PAK3 (Homo sapiens, UniProt O75914)
T4 construct: purchased Eurofins (radiometric) / Eurofins DiscoverX scanMAX / Reaction Biology / SignalChem
T4 sequence (O75914 whole entry): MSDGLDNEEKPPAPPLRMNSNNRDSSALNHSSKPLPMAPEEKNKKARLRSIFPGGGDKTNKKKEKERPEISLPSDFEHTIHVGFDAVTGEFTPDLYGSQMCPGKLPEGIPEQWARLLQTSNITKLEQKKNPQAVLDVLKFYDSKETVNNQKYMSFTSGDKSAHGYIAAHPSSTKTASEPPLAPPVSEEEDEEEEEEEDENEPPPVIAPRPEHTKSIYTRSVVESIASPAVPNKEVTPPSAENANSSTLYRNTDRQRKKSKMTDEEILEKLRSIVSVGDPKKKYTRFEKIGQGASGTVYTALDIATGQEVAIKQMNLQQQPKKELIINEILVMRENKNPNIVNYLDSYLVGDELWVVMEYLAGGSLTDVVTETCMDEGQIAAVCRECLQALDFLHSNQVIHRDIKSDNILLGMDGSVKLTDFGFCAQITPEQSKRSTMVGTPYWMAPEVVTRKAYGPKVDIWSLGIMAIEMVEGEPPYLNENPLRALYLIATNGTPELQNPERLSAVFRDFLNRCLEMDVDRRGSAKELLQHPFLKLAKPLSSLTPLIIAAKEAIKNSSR
Protocol: as §1, §2

TAOK3 = biological target: T5, TAOK3 (Homo sapiens, UniProt Q9H2K8)
T5 construct: purchased Eurofins (radiometric) / Eurofins DiscoverX scanMAX / Reaction Biology / SignalChem
T5 sequence (Q9H2K8 1-898): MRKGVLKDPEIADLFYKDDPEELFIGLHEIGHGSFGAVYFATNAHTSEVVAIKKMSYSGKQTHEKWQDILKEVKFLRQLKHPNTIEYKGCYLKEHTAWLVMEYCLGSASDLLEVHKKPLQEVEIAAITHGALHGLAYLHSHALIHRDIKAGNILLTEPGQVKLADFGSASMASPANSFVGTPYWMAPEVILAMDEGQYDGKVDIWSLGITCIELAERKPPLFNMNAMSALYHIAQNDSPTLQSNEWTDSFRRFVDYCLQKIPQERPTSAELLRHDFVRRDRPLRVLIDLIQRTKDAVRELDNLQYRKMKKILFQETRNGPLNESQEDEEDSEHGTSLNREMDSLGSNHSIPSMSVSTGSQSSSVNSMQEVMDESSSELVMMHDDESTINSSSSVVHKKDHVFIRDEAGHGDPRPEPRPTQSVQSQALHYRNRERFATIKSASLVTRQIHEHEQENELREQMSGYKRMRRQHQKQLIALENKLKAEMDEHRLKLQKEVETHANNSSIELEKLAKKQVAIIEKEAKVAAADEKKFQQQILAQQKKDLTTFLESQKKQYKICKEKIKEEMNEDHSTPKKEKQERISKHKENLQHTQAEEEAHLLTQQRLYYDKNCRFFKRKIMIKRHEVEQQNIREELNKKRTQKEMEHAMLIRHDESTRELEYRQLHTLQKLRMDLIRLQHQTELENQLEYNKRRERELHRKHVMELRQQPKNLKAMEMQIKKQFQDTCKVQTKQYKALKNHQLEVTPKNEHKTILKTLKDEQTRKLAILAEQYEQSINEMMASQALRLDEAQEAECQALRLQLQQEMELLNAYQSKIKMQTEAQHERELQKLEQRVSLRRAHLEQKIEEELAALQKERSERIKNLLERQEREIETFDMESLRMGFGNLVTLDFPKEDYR
Protocol: as §1, §2

PAK4 = biological target: T6, PAK4 (Homo sapiens, UniProt O96013)
T6 construct: purchased Eurofins (radiometric) / Eurofins DiscoverX scanMAX / Reaction Biology / SignalChem
T6 sequence (O96013 whole entry): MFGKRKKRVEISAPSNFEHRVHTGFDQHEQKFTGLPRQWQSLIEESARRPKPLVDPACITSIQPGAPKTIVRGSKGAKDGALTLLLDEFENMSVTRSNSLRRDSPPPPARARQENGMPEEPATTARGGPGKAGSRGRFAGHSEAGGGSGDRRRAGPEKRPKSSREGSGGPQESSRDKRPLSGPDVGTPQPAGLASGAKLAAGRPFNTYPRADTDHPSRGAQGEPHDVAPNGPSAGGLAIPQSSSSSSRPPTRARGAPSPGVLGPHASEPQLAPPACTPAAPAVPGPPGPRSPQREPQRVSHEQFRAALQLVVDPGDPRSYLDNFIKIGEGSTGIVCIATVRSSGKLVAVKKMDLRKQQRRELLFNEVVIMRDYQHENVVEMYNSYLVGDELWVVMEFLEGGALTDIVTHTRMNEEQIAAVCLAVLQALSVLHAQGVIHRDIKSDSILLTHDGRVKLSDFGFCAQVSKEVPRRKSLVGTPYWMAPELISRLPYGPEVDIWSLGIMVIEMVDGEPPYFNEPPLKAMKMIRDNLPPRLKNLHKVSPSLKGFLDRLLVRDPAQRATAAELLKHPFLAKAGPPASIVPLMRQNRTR
Protocol: as §1, §2

CC(C)(O)C#Cc1ccc2[nH]c3c(c2c1)-c1nc(N)ncc1CCC3 [AMG28, reference compound]
MARK4 PoC at 1 μM (MARK4): 18 PoC
MARK3 PoC at 1 μM (MARK3): 12 PoC
TSSK2 PoC at 1 μM (TSSK2): 57 PoC
PAK3 PoC at 1 μM (PAK3): 86 PoC
TAOK3 PoC at 1 μM (TAOK3): 9 PoC
PAK4 PoC at 1 μM (PAK4): 8 PoC

CC(C)(O)C#Cc1ccc2[nH]c3c(c2c1)-c1nc(N)ncc1CC3 [Compound 1]
MARK4 PoC at 1 μM (MARK4): 53 PoC
MARK3 PoC at 1 μM (MARK3): 56 PoC
TSSK2 PoC at 1 μM (TSSK2): 88 PoC
PAK3 PoC at 1 μM (PAK3): 86 PoC
TAOK3 PoC at 1 μM (TAOK3): 11 PoC
PAK4 PoC at 1 μM (PAK4): 58 PoC

CC(C)(O)C#Cc1ccc2[nH]c3c(c2c1)-c1nc(N)ncc1CCCC3 [Compound 2]
MARK4 PoC at 1 μM (MARK4): 86 PoC
MARK3 PoC at 1 μM (MARK3): 76 PoC
TSSK2 PoC at 1 μM (TSSK2): 76 PoC
PAK3 PoC at 1 μM (PAK3): 100 PoC
TAOK3 PoC at 1 μM (TAOK3): 78 PoC
PAK4 PoC at 1 μM (PAK4): 67 PoC

CC(C)(O)C#Cc1ccc2[nH]cc(-c3ccnc(N)n3)c2c1 [Compound 3]
MARK4 PoC at 1 μM (MARK4): 43 PoC
MARK3 PoC at 1 μM (MARK3): 46 PoC
TSSK2 PoC at 1 μM (TSSK2): 78 PoC
PAK3 PoC at 1 μM (PAK3): 104 PoC
TAOK3 PoC at 1 μM (TAOK3): 20 PoC
PAK4 PoC at 1 μM (PAK4): 30 PoC

COC(C)(C)C#Cc1ccc2[nH]c3c(c2c1)-c1nc(N)ncc1CCC3 [Compound 11]
MARK4 PoC at 1 μM (MARK4): 103 PoC
MARK3 PoC at 1 μM (MARK3): 104 PoC
TSSK2 PoC at 1 μM (TSSK2): 86 PoC
PAK3 PoC at 1 μM (PAK3): 100 PoC
TAOK3 PoC at 1 μM (TAOK3): 89 PoC
PAK4 PoC at 1 μM (PAK4): 91 PoC

Source: publication PMC10104807, “Modulation of tau tubulin kinases (TTBK1 and TTBK2) impacts ciliogenesis” (Scientific Reports, 2023)
